According to patent US20060025566A1, “Macrocyclic modulators of the ghrelin receptor” (Tranzyme Pharma Inc., priority 2003, published 2006):

Biological target: T1, human growth hormone secretagogue receptor (hGHS-R1a) (Homo sapiens, UniProt Q92847)
T1 construct: purchased PerkinElmer BioSignal #RBHGHSM, lot#1887; host or cells: HEK-293, stably transfected (membranes)
Test: Competitive radioligand binding assay (ghrelin receptor), [125I]-ghrelin displacement on GHS-R/HEK 293 membranes
Details: Table 3C (compounds 18, 334-397), human ghrelin receptor; read-out: Ki
Method: The competitive binding assay at the human growth hormone secretagogue receptor (hGHS-R1a) was carried out analogously to assays described in the literature.
Multiscreen Harvest plates-GF/C (Millipore, #MAHFC 1H60) • 4. […] Bottom seal (Millipore, #MATAH0P00) • 7. […] Binding Buffer: 25 mM Hepes (pH 7.4), 1 mM CaCl2, 5 mM MgCl2, 2.5 mM EDTA, 0.4% BSA Assay Volumes
Competition experiments were performed in a 300 μl filtration assay format. • 1. 220 μL of membranes diluted in binding buffer • 2. 40 μL of compound diluted in binding buffer • 3. […] Compound Handling
Compounds were provided frozen on dry ice at a stock concentration of 10 mM diluted in 100% DMSO and stored at −80° C. until the day of testing. On the test day, compounds were allowed to thaw at rt O/N and then diluted in assay buffer according to the desired test concentrations.
Plates were sealed with TopSeal-A, vortexed gently and incubated at rt for 30 min. The reaction was arrested by filtering samples through Multiscreen Harvest plates (pre-soaked in 0.5% polyethyleneimine) using a Tomtec Harvester, washed 9 times with 500 μL of cold 50 mM Tris-HCl (pH 7.4, 4° C.), and then plates were air-dried in a fumehood for 30 min. A bottom seal was applied to the plates prior to the addition of 25 μL of MicroScint-0 to each well. […] Results were expressed as counts per minute (cpm).
Data were analyzed by GraphPad Prism (GraphPad Software, San Diego, Calif.) using a variable slope non-linear regression analysis.
• 1. […] Key Aspects of Method • 1. […] Results

T1 sequence (Q92847 whole entry): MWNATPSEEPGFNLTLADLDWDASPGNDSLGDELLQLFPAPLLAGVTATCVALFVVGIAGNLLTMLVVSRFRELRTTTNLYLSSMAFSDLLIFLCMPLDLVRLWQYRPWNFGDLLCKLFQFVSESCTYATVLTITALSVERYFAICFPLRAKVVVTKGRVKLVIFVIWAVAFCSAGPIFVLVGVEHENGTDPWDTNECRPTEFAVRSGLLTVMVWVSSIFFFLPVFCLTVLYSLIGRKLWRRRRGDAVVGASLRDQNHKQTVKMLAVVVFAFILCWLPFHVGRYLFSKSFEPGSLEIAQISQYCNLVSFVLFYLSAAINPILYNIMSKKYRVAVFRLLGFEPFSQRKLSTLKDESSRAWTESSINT

| Ki | SMILES |
| --- | --- |
| 100 to 1000 nM | CC1(C)NCCOc2ccccc2C=CCNC(=O)[C@H](Cc2cccc(Cl)c2)NC(=O)C(C)(C)NC1=O (stereo in doubt) [compound 350] |

Same assay, conditions: Table 3E, human ghrelin receptor; read-out: Ki

| Ki | SMILES |
| --- | --- |
| 10 to 100 nM | CCC(C)[C@@H]1NCCOc2ccccc2CCCNC(=O)[C@@H](Cc2ccccc2)N2CC[C@H](C2=O)N(C)C1=O (stereo partly drawn) |
| 100 to 1000 nM | CCC[C@@H]1NCCOc2ccccc2CCCNC(=O)[C@@H](Cc2ccccc2)NC(=O)[C@H]2CCCN2C1=O |
| 10 to 100 nM | C[C@@H]1C(=O)N[C@H](Cc2ccccc2)C(=O)NCCCc2ccccc2OCCN2CCCC[C@H]2C(=O)N1C [drawing 1187] |
| 1000 to 10000 nM | CCC[C@@H]1NCCOc2ccccc2CCCNC(=O)[C@@H](Cc2ccccc2)NC(=O)[C@@H]2CCCN2C1=O |

Same assay, conditions: [125I]-ghrelin competition, GHS-R/HEK 293 membranes; Table 3A; read-out: Binding Activity at the Human Ghrelin Receptor

| Ki | SMILES |
| --- | --- |
| 100 to 1000 nM | CC[C@@H](C)[C@H]1NC(=O)[C@@H](C)N(C)C(=O)[C@H]([C@@H](C)CC)NCCOc2ccccc2CCCNC1=O [compound 175] |
| 10 to 100 nM | CC(C)C[C@@H]1NCCOc2ccccc2C=CCNC(=O)[C@H](Cc2ccc3ccccc3c2)NC(=O)C2(CCCC2)NC1=O (stereo in doubt) [compound 159] |
| 1000 to 10000 nM | CCC(C)C1NCCOc2ccccc2CCCNC(=O)C(Cc2ccccc2)NC(=O)C(COC(C)(C)C)NC1=O (stereo not drawn) [compound 215] |
| > 10000 nM | CC[C@@H]1NC(=O)C2(CCCC2)NC(=O)[C@H](CC(C)C)NCCOc2ccccc2C=CCNC1=O (stereo in doubt) [compound 165] |
| 100 to 1000 nM | CC(C)[C@@H]1NCCOc2ccccc2C=CCNC(=O)[C@H](Cc2ccccc2)NC(=O)C2(CC2)NC1=O (stereo in doubt) [compound 199] |
| > 1000 nM | CCC(C)C1NCCOc2ccccc2CCCNC(=O)C(Cc2ccccc2)NC(=O)C2CSCN2C1=O (stereo not drawn) [compound 213] |
| 1000 to 10000 nM | CC(C)[C@@H]1NCCOc2ccccc2CCCNC(=O)[C@H](Cc2ccccc2)NC(=O)C2(CC2)NC1=O [compound 216] |
| 100 to 1000 nM | CCC(C)C1NCCc2ccccc2CCCCNC(=O)C(Cc2ccccc2)NC(=O)C(C)N(C)C1=O (single isomer, unassigned) [189a] |

Same assay, conditions: binding activity at the human ghrelin receptor, [125I]-ghrelin competition, GHS-R/HEK 293 membranes; read-out: Ki

| Ki | SMILES |
| --- | --- |
| > 10000 nM | CC(C)CC1NCCOc2ccccc2CCCNC(=O)C(Cc2ccccc2)NC(=O)C2(CCCC2)NC1=O (stereo not drawn) [compound 96] |
| 10 to 100 nM | CCC(C)C1NCCOc2ccccc2CCCNC(=O)C(Cc2ccccc2)NC(=O)C(CC)N(C)C1=O (stereo not drawn) [compound 41] |
| 100 to 1000 nM | CCC[C@@H]1NCCOc2ccccc2CCCNC(=O)[C@@H](Cc2ccccc2)NC(=O)C2(CCCC2)NC1=O [compound 67] |
| 100 to 1000 nM | O=C1NC2(CCCC2)C(=O)N[C@@H](Cc2ccccc2)C(=O)NCCCc2ccccc2OCCN[C@H]1Cc1ccccc1 [compound 102] |
| > 10000 nM | CN1CC(=O)N[C@H](Cc2ccccc2)C(=O)NCCCc2ccccc2OCCN[C@@H](CCC(=O)O)C1=O [compound 73] |
| > 500 nM | CC(C)C[C@@H]1NCCOc2ccccc2C=CCNC(=O)[C@H](CCc2ccccc2)NC(=O)C2(CCCC2)NC1=O (stereo in doubt) [compound 155] |
| 1000 to 10000 nM | CC(C)C[C@@H]1NCCOc2ccccc2CCCNC(=O)[C@H](CCc2ccccc2)NC(=O)C2(CCCC2)NC1=O [compound 90] |
| 1000 to 10000 nM | CCC[C@@H]1NCCOc2ccccc2CCCNC(=O)[C@@H](Cc2ccccc2)NC(=O)[C@H](C)NC1=O [compound 59] |
| > 10000 nM | CC(C)CC1NCc2ccc(cc2)CCNC(=O)C(Cc2ccccc2)NC(=O)C2(CCCC2)NC1=O (stereo not drawn) [compound 115] |
| > 10000 nM | CC(C)C[C@@H]1NCCOc2ccccc2CCCNC(=O)[C@H](CCC(=O)O)NC(=O)C2(CCCC2)NC1=O [compound 92] |
| > 10000 nM | CCC[C@@H]1NCCOc2ccccc2CCCNC(=O)CNC(=O)CN(C)C1=O [compound 51] |
| > 1000 nM | CC[C@H](C)[C@@H]1NCCOc2ccccc2CCCNC(=O)[C@@H](Cc2ccccc2)NC(=O)[C@H](CC(C)C)N(C)C1=O [compound 148] |
| 1000 to 10000 nM | CC(C)C[C@@H]1NCCOc2ccccc2CCCNC(=O)[C@H](Cc2ccccc2)NC(=O)C(C)(C)NC1=O [compound 95] |
| 100 to 1000 nM | CCC[C@@H]1NCCOc2ccccc2CCCNC(=O)[C@@H](Cc2ccccc2)NC(=O)[C@@H](C)NC1=O [compound 60] |
| > 1000 nM | CC[C@H](C)[C@@H]1NCCOc2ccccc2CCCNC(=O)[C@@H](Cc2ccccc2)NC(=O)[C@@H](CO)NC1=O [compound 151] |
| 1000 to 10000 nM | CC(C)C[C@@H]1NCCOc2ccccc2CCCNC(=O)[C@H](Cc2c[nH]c3ccccc23)NC(=O)C2(CCCC2)NC1=O [compound 89] |
| 100 to 1000 nM | CCC(C)C1NCCOc2ccccc2CCCNC(=O)C(Cc2ccccc2)NC(=O)C(C(C)C)N(C)C1=O (stereo not drawn) [compound 144] |
| 1000 to 10000 nM | CN1CC(=O)N[C@H](Cc2ccccc2)C(=O)NCCCc2ccccc2OCCN[C@@H](CCCCN)C1=O [compound 74] |
| 100 to 1000 nM | CCCC[C@@H]1NCCOc2ccccc2CCCNC(=O)[C@H](Cc2ccccc2)NC(=O)C2(CCCC2)NC1=O [compound 101] |
| 10 to 100 nM | CO[C@H](C)[C@@H]1NCCOc2ccccc2CCCNC(=O)[C@@H](Cc2ccccc2)NC(=O)[C@@H](C)N(C)C1=O [compound 120] |
| > 10000 nM | CC(C)C[C@@H]1NCCOc2ccccc2C=CCNC(=O)[C@H](CCC(=O)O)NC(=O)C2(CCCC2)NC1=O (stereo in doubt) [compound 45] |
| 10 to 100 nM | CC[C@H](C)[C@@H]1NCCOc2ccccc2C=CCNC(=O)[C@H](Cc2ccccc2)NC(=O)C2(CCCC2)NC1=O (stereo in doubt) [compound 138] |
| > 10000 nM | CCCC1NCCC=CCCNC(=O)C(Cc2ccccc2)NC(=O)CN(C)C1=O (stereo not drawn) [compound 83] |
| > 1000 nM | O=C1NC2(CCCC2)C(=O)N[C@@H](Cc2ccccc2)C(=O)NCC=Cc2ccccc2OCCN[C@H]1Cc1ccncc1 (stereo in doubt) [compound 133] |
| > 1000 nM | CCC(C)C1NCCOc2ccccc2CCCNC(=O)C(Cc2ccccc2)NC(=O)C(C(C)C)N(C)C1=O (single isomer, unassigned) [145b] |

Same assay, conditions: binding activity at the human ghrelin receptor, [125I]-ghrelin displacement; read-out: Ki

| Ki | SMILES |
| --- | --- |
| 10 to 100 nM | CCC(C)C1NCCOc2ccccc2C=CCNC(=O)C(Cc2cccc(OC)c2)NC(=O)C2(CCCC2)NC1=O (stereo not drawn) [compound 328] |
| 100 to 1000 nM | COc1ccccc1C[C@@H]1NCCOc2ccccc2/C=C/CNC(=O)[C@H](Cc2cccc(Cl)c2)NC(=O)C2(CCCC2)NC1=O [compound 343] |
| 10 to 100 nM | C[C@@H]1C(=O)N[C@H](Cc2ccc(C#N)cc2)C(=O)NCCCc2ccccc2OCCN[C@@H](C2CC2)C(=O)N1C [compound 321] |
| 0.1 to 10 nM | C[C@@H]1C(=O)N[C@H](Cc2ccc(Cl)cc2)C(=O)NCC=Cc2ccccc2OCCN[C@@H](C2CC2)C(=O)N1C (stereo in doubt) [compound 308] |
| 0.1 to 10 nM | CC1C(=O)NC(Cc2ccc(Cl)c(Cl)c2)C(=O)NCCCc2ccccc2OCCNC(C2CC2)C(=O)N1C (stereo not drawn) [compound 315] |
| 0.1 to 10 nM | C[C@@H]1C(=O)N[C@H](Cc2ccccc2F)C(=O)NCCCc2ccccc2OCCN[C@@H](C2CC2)C(=O)N1C [compound 312] |
| 10 to 100 nM | CCC(C)C1NCCOc2ccccc2C=CCNC(=O)C(Cc2cccc(F)c2)NC(=O)C2(CCCC2)NC1=O (stereo not drawn) [compound 325] |
| 0.1 to 10 nM | C[C@@H]1C(=O)N[C@H](Cc2ccc(I)cc2)C(=O)NCCCc2ccccc2OCCN[C@@H](C2CC2)C(=O)N1C [compound 320] |

Same assay, conditions: second table titled 3C (compounds 435-449), human ghrelin receptor; read-out: Ki

| Ki | SMILES |
| --- | --- |
| 1000 to 10000 nM | CC1C(=O)NC(Cc2ccc(F)cc2)C(=O)NCCOCCOCCNC(C2CC2)C(=O)N1C (single isomer, unassigned) [446a] |
| 1000 to 10000 nM | CCC(C)C1NCCOc2ccccc2C=CCNC(=O)C(Cc2ccc(C(=O)O)cc2)NC(=O)C2(CCCC2)NC1=O (stereo not drawn) [compound 441] |
